Reference: the supplement of paper PMC10883282
± gives the standard deviation of the averaged measurements.

Tested on: HS729
Test: relative viability vs DMSO control (72 h) (fraction); higher = more viable cells
In short: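 Densities for seeding sarcoma cell lines into 384-well plates were set to give 80–90% confluence. After 24 h, 2.5 µl of serially diluted compound from source plates of 10 mM to 0.0002 mM went in, and plates stayed 72 h at 37 °C in 5% CO2 with 0.1% DMSO vehicle and a 5 µM positive control. Percent growth from ATPLite readings, averaged over up to triplicate wells, served as relative viability, rescaled so 1 means full and 0 means none.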

SMILES | relative viability (0.00017 µM) | relative viability (0.00051 µM) | relative viability (0.00152 µM) | relative viability (0.00457 µM) | relative viability (0.01372 µM) | relative viability (0.04115 µM) | relative viability (0.1235 µM) | relative viability (0.3704 µM) | relative viability (1.111 µM) | relative viability (3.333 µM) | relative viability (10 µM)
CO[C@H]1C[C@@H]2CC[C@@H](C)[C@@](O)(O2)C(=O)C(=O)N2CCCC[C@H]2C(=O)O[C@H]([C@H](C)C[C@@H]2CC[C@@H](OP(C)(C)=O)[C@H](OC)C2)CC(=O)[C@H](C)/C=C(\C)[C@@H](O)[C@@H](OC)C(=O)[C@H](C)C[C@H](C)/C=C/C=C/C=C/1C [Ridaforolimus] | 0.962 ± 0.012 | 1 ± 0.045 | 0.977 ± 0.048 | 0.907 ± 0.1 | 0.923 ± 0.054 | 0.944 ± 0.0096 | 0.916 ± 0.12 | 0.924 ± 0.096 | 0.86 ± 0.14 | 0.786 ± 0.065 | 0.763 ± 0.052
Cc1cnc(Nc2ccc(OCCN3CCCC3)cc2)nc1Nc1cccc(S(=O)(=O)NC(C)(C)C)c1 [Fedratinib] | 1.03 ± 0.038 | 0.948 ± 0.033 | 0.99 ± 0.02 | 0.928 ± 0.047 | 0.924 ± 0.05 | 0.888 ± 0.021 | 0.805 ± 0.033 | 0.649 ± 0.026 | 0.497 ± 0.0061 | 0.263 ± 0.025 | 0.0101 ± 0.0019
Cn1cc(-c2cc3c(N4CCN(c5ncc([C@@](C)(N)c6ccc(F)cc6)cn5)CC4)ncnn3c2)cn1 [Avapritinib] | 0.909 ± 0.046 | 0.949 ± 0.023 | 0.9313 ± 0.0083 | 0.916 ± 0.037 | 0.909 ± 0.025 | 0.899 ± 0.077 | 0.864 ± 0.093 | 0.822 ± 0.084 | 0.814 ± 0.11 | 0.819 ± 0.086 | 0.802 ± 0.13
CN1CCN(c2ccc3nc(-c4c(N)c5c(F)cccc5[nH]c4=O)[nH]c3c2)CC1 [Dovitinib] | 1.09 ± 0.058 | 1.03 ± 0.036 | 1.09 ± 0.027 | 1.04 ± 0.061 | 1.05 ± 0.079 | 1 ± 0.026 | 0.968 ± 0.083 | 0.832 ± 0.059 | 0.62 ± 0.025 | 0.41 ± 0.066 | 0.264 ± 0.034
